Measurements published in ChEMBL document CHEMBL1201862, “PubChem BioAssay data set” (2004).
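How tested: cells in 96-well plates exposed to compound for 48 hours at five concentrations. GI50 is the concentration that inhibits growth by half.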 Calls of active or inactive are those of the source. No stated cut-off is given here; in the data, active = GI50 up to about 1.1 µM and inactive = higher.

Key:
Assay in all cases: NCI-60 cell line screen, 48 h
NCI-H460 = system: NCI-H460
MOLT-4 = system: MOLT-4
UACC-62 = system: UACC-62
NCI-H522 = system: NCI-H522
RPMI-8226 = system: RPMI-8226
SK-MEL-2 = system: SK-MEL-2
UO-31 = system: UO-31
SK-OV-3 = system: SK-OV-3
SW-620 = system: SW-620
SF-539 = system: SF-539
SK-MEL-5 = system: SK-MEL-5
SF-295 = system: SF-295
SK-MEL-28 = system: SK-MEL-28
CAKI-1 = system: CAKI-1
CCRF-CEM = system: CCRF-CEM

Measured: GI50

C=C(C)C1CC2C(C)=C(OC(C)=O)C1n1c(=O)c3cc4ccccc4cc3c(=O)n12 (stereo unspecified)
inactive: NCI-H460 62.5 µM | MOLT-4 32.7 µM | UACC-62 31.8 µM | NCI-H522 51.5 µM | RPMI-8226 36 µM | SK-MEL-2 > 100 µM | UO-31 > 83 µM | SK-OV-3 > 100 µM | SW-620 > 71.4 µM | SF-539 > 100 µM | SK-MEL-5 87.3 µM | SF-295 > 71.6 µM | SK-MEL-28 > 100 µM | CAKI-1 62.2 µM

O=C1C2Cc3ccccc3CN2C(=O)N1CCN1CCCC1 (stereo unspecified)
inactive: CCRF-CEM > 100 µM | NCI-H460 > 100 µM | MOLT-4 > 100 µM | UACC-62 > 100 µM | NCI-H522 > 100 µM | RPMI-8226 > 100 µM | SK-MEL-2 > 100 µM | UO-31 > 100 µM | SW-620 > 100 µM | SF-539 > 100 µM | SK-MEL-5 > 100 µM | SF-295 > 100 µM | SK-MEL-28 > 100 µM | CAKI-1 64.1 µM

COc1cc(/C=C/C(=N\NC(=O)c2ccccc2)c2sc(Nc3ccc(Cl)c(Cl)c3)nc2C)ccc1O
inactive: CCRF-CEM 27.9 µM | NCI-H460 31.3 µM | MOLT-4 20.7 µM | UACC-62 7.59 µM | NCI-H522 17 µM | SK-MEL-2 26.2 µM | UO-31 28.8 µM | SK-OV-3 70.3 µM | SW-620 40.4 µM | SF-539 40.8 µM | SF-295 33.1 µM | SK-MEL-28 40.6 µM | CAKI-1 36.4 µM

C=CCCC(O)c1cc(C)c(O)c(C)c1 (stereo unspecified)
inactive: CCRF-CEM > 100 µM | NCI-H460 > 100 µM | MOLT-4 > 100 µM | UACC-62 > 100 µM | NCI-H522 > 100 µM | RPMI-8226 > 100 µM | SK-MEL-2 > 100 µM | UO-31 > 100 µM | SK-OV-3 > 100 µM | SW-620 > 100 µM | SF-539 > 100 µM | SK-MEL-5 > 100 µM | SF-295 > 100 µM | SK-MEL-28 > 100 µM

CC1(C)NC(=O)N(CCCCCCN2C(=O)NC(C)(C)C2=O)C1=O
inactive: CCRF-CEM > 100 µM | NCI-H460 > 100 µM | MOLT-4 > 100 µM | UACC-62 > 100 µM | NCI-H522 > 100 µM | RPMI-8226 > 100 µM | SK-MEL-2 > 100 µM | UO-31 > 100 µM | SK-OV-3 > 100 µM | SW-620 > 100 µM | SK-MEL-28 > 100 µM | CAKI-1 > 100 µM

O=C1CCC(O)=C1O
inactive: CCRF-CEM > 100 µM | NCI-H460 > 100 µM | MOLT-4 > 100 µM | UACC-62 > 100 µM | NCI-H522 > 100 µM | RPMI-8226 > 100 µM | SK-MEL-2 > 100 µM | SK-OV-3 > 100 µM | SW-620 > 100 µM | SF-539 > 100 µM | SK-MEL-5 > 100 µM | SF-295 > 100 µM | SK-MEL-28 > 100 µM | CAKI-1 > 100 µM

Cc1nnc(N/N=C(/C(=O)C(C#N)c2ccc(Cl)cc2)C(C#N)c2ccc(Cl)cc2)n1N (stereo unspecified)
inactive: CCRF-CEM 35.6 µM | NCI-H460 18.6 µM | MOLT-4 31.7 µM | NCI-H522 16.6 µM | RPMI-8226 16.5 µM | SK-MEL-2 18.2 µM | UO-31 17.7 µM | SW-620 18.8 µM | SK-MEL-5 16 µM | SF-295 15.7 µM | SK-MEL-28 18.7 µM | CAKI-1 20.8 µM

CSc1nc(C)cc(=O)n1C1OC(COC(C)=O)C(OC(C)=O)C(OC(C)=O)C1OC(C)=O (stereo unspecified)
inactive: CCRF-CEM > 100 µM | NCI-H460 > 100 µM | MOLT-4 > 100 µM | UACC-62 > 100 µM | NCI-H522 > 100 µM | RPMI-8226 > 100 µM | SK-MEL-2 53.3 µM | UO-31 > 100 µM | SK-OV-3 > 100 µM | SW-620 > 100 µM | SK-MEL-5 > 100 µM | SF-295 > 100 µM | SK-MEL-28 > 100 µM

CN1/C(=N\c2ccccc2)S/C1=N/c1ccccc1
inactive: CCRF-CEM 69.3 µM | NCI-H460 > 100 µM | MOLT-4 69.3 µM | UACC-62 > 100 µM | NCI-H522 14.4 µM | RPMI-8226 39.5 µM | SK-MEL-2 27.2 µM | UO-31 > 100 µM | SK-OV-3 > 100 µM | SW-620 > 100 µM | SF-539 > 100 µM | SK-MEL-5 28.9 µM | SF-295 > 100 µM | SK-MEL-28 > 100 µM

COc1ccc(/C=C/CO)cc1OC
inactive: MOLT-4 > 100 µM | UACC-62 > 100 µM | RPMI-8226 > 100 µM | SK-MEL-2 > 100 µM | UO-31 > 100 µM | SK-OV-3 > 100 µM | SW-620 > 100 µM | SF-539 > 100 µM | SK-MEL-5 > 100 µM | SF-295 > 100 µM | SK-MEL-28 > 100 µM
